# Where two headings read alike, the source gives them in different places.
# Experiments:
# [1] = Fluorescence emission and fluorescence quantum yield; type: physicochemical
# Source text: The absorption bands of each photosensitiser are relatively insensitive to solvent changes with solutions in water/Cremophor resulting in a further bathochromic shift of ˜10 nm (Table 1). Excitation of chloroform solutions of the 2a and 4a at 635 nm gave a fluorescence band at 672 and 673 nm respectively (FIG. 2, Table 2). […] The reduction in fluorescence quantum yield in the series would imply more efficient population of the triplet excited state which would benefit singlet oxygen production. The ability of 2 and 4 to produce singlet oxygen would be a prerequisite to them being potential PDT agents.
# HeLa cells [2] = experiment: Fluorescence microscopy uptake study in HeLa cells; type: cell-based; conditions: 10^−5 M, water/Cremophor
# Experimental: (§1) Cells were seeded at a density of 30,000 cells/well in chamber slides and allowed to adhere for 24 hr. A compound of the present invention (10^−5 M) was then added to each chamber and incubated at 37° C. in the dark over time, for example, 15 min, 30 min, 1 hr, 3 hr and 6 hr. The medium was removed after the specified time and the cells were washed 4 times with medium free of that compound of the invention. The cells were then fixed with 3.7% (v/v) formaldehyde for 15 min at 37° C. The fixative solution was removed and the cells were washed twice with sterile PBS. DAPI nuclear stain (1/1000) was then incubated with the cells for 10 is min at 37° C., following which the cells were washed twice with PBS. Cells were then mounted in Vectashield (Trade Mark) mounting medium.
# LabWorks (Bioimaging Systems) was used to calculate the average fluorescence intensity per cell for each of the different time points used in the uptake and efflux studies for the compounds of the present invention. […] The DAPI filter was used to accurately count the number of cells in each field of view and the rhodamine filter was used to quantify the fluorescence of the compounds of the present invention. […]
# (§2) Using the assay method set out above under the heading “Fluorescence Microscopy”, the uptake of 2a was examined for HeLa and MRC5 […] cell lines and the data are illustrated in FIGS. 6a and 6b, respectively. […]
# MRC5 cells = experiment: Fluorescence microscopy uptake study in MRC5 cells; type: cell-based; conditions: 10^−5 M
# Experimental: as §1
# LabWorks (Bioimaging Systems) was used to calculate the average fluorescence intensity per cell for each of the different time points used in the uptake and efflux studies for the compounds of the present invention. […] The DAPI filter was used to accurately count the number of cells in each field of view and the rhodamine filter was used to quantify the fluorescence of the compounds of the present invention.
# as §2
# HeLa cells [3] = experiment: Light/dark cytotoxicity study (MTT) in HeLa cells; type: cell-based
# Experimental: MRC5 and HeLa cell cultures were maintained in MEM (minimum essential medium) containing 10% (v/v) foetal calf serum (FCS), 1% (v/v) non-essential amino acids, 2 μg/ml Fungizone (Trade Mark) (amphotericin B), 50 μg/ml penicillin, 50 μg/ml streptomycin, 20 mM HEPES and 1% (v/v) L-Glutamine. Cells were passaged at least twice before use in the cytotoxicity assays.
# Stock haematoporphyrin water-dimethyl sulphoxide (DMSO) (100:1 (v/v)) solutions were diluted with MEM containing 10% FCS. Cells were seeded at 5,000 cells/well in 96-well plates and incubated for 24 hr at 37° C. The 24 hour incubation period was chosen having regard to the slower uptake of haernatoporphyrin in the absence of Cremophor, when compared to the compounds of the present invention in the presence of Cremophor (see below). Cells were then incubated with haematoporphyrin in the dark for 24 hr at 37° C. The haematoporphyrin laden culture medium was then removed by filtration, the cells were washed with PBS and fresh culture medium was added to each well. A 500 W light source, passed through a red glass and water filter barrier, (to ensure cells are irradiated with light of wavelength greater than 570 nm) was used to irradiate the plates for both 15 and 30 min. Following irradiation, the cells were incubated for a further 48 hr at 37° C. before being assessed for cell survival.
# Stock 2a or 2b water-Cremophor EL (Trade Mark—CAS 61791-12-6) (1:250 (v/v)) solutions were diluted with MEM containing 10% FCS. Cells were seeded at 5,000 cells/well in 96-well plates and incubated for 24 hr at 37° C. Cells were then incubated with 2a or 2b in the dark for 3 hr at 37° C. The 3 hour incubation period was chosen to reflect the faster cellular uptake of 2a or 2b in the presence of Cremophor, when compared to the cellular uptake of haematoporphyrins in the absence of Cremophor. The 2a or 2b laden culture medium was then removed by filtration, the cells were washed with PBS and fresh culture medium was added to each well. The plates were then irradiated using a 500 W light source passed through a red glass and water filter barrier, (thereby ensuring cells are irradiated with light of wavelength greater than 570 nm) for both 15 and 30 min.
# Following irradiation, the cells were incubated for a further 48 hr at 37° C. before being assessed for cell survival. The dark toxicity of compounds of the present invention was also assessed in each experiment.
# Cell viability was estimated using the standard MTT (microtiter tetrazolium) assay. This assay measures mitochondrial dehydrogenase activity and is based on the reduction of a soluble yellow tetrazolium salt to a blue, insoluble MTT formazan product by this enzyme. The subsequent colour change produced by viable cells was quantified using a plate reader (VICTOR^2 1420 multilabel HTS counter, Wallac). As mentioned above under the headings “Cytotoxicity”, the cells are incubated at 37° C. for 48 hours, following which the MTT solution was added to the cells at a final concentration of 0.5 mg/ml and incubated for 3 hr at 37° C. The MTT solution was then removed by filtration and 100 μl DMSO was added to each well in order to lyse the cells and release the formazan dye. The plates were read 1 hr later at 540 nm.
# Prism (Trade Mark) […] was used to graph the data obtained from the MTT assays and the uptake/efflux experiments. This programme allows non-linear regression analysis and the generation of sigmoidal dose response curves. Prism (Trade Mark) also automatically calculates EC50 values.
# Light toxicity assays were also carried out as described above under “Assay methods” in HeLa and MRC5 cells for haematoporphyrin (FIGS. 9 and 10), 2a (FIGS. 11 and 12) and 2b (FIGS. 13 and 14).
# HeLa cells [4] = experiment: F-actin staining fluorescence microscopy of treated HeLa cells; type: cell-based
# Experimental: FIG. 15 illustrates a control experiment which is a fluorescence microscope image of F-actin stained HeLa cells (with rhodamine phalloidine, red colour) 24 hours after treatment with Compound 2a and no exposure to light (0 min light dose). FIG. 15 illustrates such F-Actin stained cells are live.
# FIG. 16 confirms cell death following treatment with Compound 2a and 30 minute 500 W light dose, using fluorescence microscopy. More specifically, FIG. 16 is a fluorescence microscope image of F-actin stained HeLa cells (with rhodamine phalloidine, red colour) 24 hours after treatment with Compound 2a and 30 minute light dose.
smiles,measurement,setting,value
F[B-]1(F)n2c(-c3ccccc3)cc(-c3ccccc3)c2N=C2C(c3ccccc3)=CC(c3ccccc3)=[N+]21 [Compound 2a],λ em (fluorescence band),"[1]; CHCl3, room temperature, excitation at 635 nm",672 nm
same,λ em (fluorescence band),"[1]; Water/Cremophor (100:1), room temperature",683 nm
same,Φf (fluorescence quantum yield),"[1]; relative to magnesium tetra-tert-butylphthalocyanine in CHCl3, room temperature",0.34
same,time of maximum uptake,HeLa cells [2],300 min
same,time of maximum uptake,MRC5 cells,200 min
same,EC50,"HeLa cells [3]; 0 J/cm^2 light (no light), read-out: EC50 (dark toxicity)",23 µM
same,EC50,"HeLa cells [3]; 8 J/cm^2 light (15 mins from a 500 W light source), read-out: EC50",4.5 µM
same,EC50,"HeLa cells [3]; 16 J/cm^2 light (30 mins from a 500 W light source), read-out: EC50",1.3 µM
same,cell state by F-actin staining,HeLa cells [4]; 24 hours after treatment and 30 minute 500 W light dose,cell death
same,cell state by F-actin staining,"HeLa cells [4]; 24 hours after treatment, no exposure to light",live

# Source: patent US7220732B2, “Compounds useful as photodynamic therapeutic agents” (priority 2002, dated 2007)
